PubChem BioAssay (NCI)
Values joined by “and” are separate entries in the source; they are usually repeats but may differ in a detail not shown here. Equal values may be shown once.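 All cell lines were grown in 96-well plates and treated with compound for 48 hours. GI50 is the concentration that inhibits growth by half. TGI is the concentration that stops growth completely.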 Where a SMILES comes first, the peptide text is derived from it. [ ]: non-standard residue; d: D form. The star is where a group is joined. ξ: configuration not given here. NMeF = CN[C@@H](Cc1ccccc1)C(=O)O; NMeV = CN[C@H](C(=O)O)C(C)C; ξNMeN = CNC(CC(N)=O)C(=O)O; NMeA = CN[C@@H](C)C(=O)O; ξNMeV = CNC(C(=O)O)C(C)C; Boc = CC(C)(C)OC(=O)*

Columns and labels:
Assay in all cases: DTP human tumour cell line panel, 48 h; in the data active = GI50 below about 0.43 µM; inactive = the rest
A549 NSCLC = system: A549 NSCLC
XF 498 CNS = system: XF 498 CNS
SK-MEL-28 melanoma = system: SK-MEL-28 melanoma
SF-295 CNS = system: SF-295 CNS
DLD-1 colon = system: DLD-1 colon
DMS 114 small cell lung = system: DMS 114 small cell lung
RXF 393 renal = system: RXF 393 renal
SW-620 colon = system: SW-620 colon
OVCAR-8 ovarian = system: OVCAR-8 ovarian
CCRF-CEM leukemia = system: CCRF-CEM leukemia
COLO 205 colon = system: COLO 205 colon
SNB-78 CNS = system: SNB-78 CNS
SK-MEL-5 melanoma = system: SK-MEL-5 melanoma
RPMI-8226 leukemia = system: RPMI-8226 leukemia
HCT-15 colon = system: HCT-15 colon
SK-MEL-2 melanoma = system: SK-MEL-2 melanoma
IGROV1 ovarian = system: IGROV1 ovarian
MDA-N = system: MDA-N
M14 melanoma = system: M14 melanoma
HL-60(TB) leukemia = system: HL-60(TB) leukemia
CAKI-1 renal = system: CAKI-1 renal
DMS 273 small cell lung = system: DMS 273 small cell lung
LXFL 529 NSCLC = system: LXFL 529 NSCLC
SNB-19 CNS = system: SNB-19 CNS
HOP-62 NSCLC = system: HOP-62 NSCLC
HCT-116 colon = system: HCT-116 colon
SF-268 CNS = system: SF-268 CNS
MDA-MB-231 breast = system: MDA-MB-231 breast
T-47D breast = system: T-47D breast
MDA-MB-435 = system: MDA-MB-435
EKVX NSCLC = system: EKVX NSCLC
UO-31 renal = system: UO-31 renal
NCI-H460 lung = system: NCI-H460 lung
A498 renal = system: A498 renal
OVCAR-3 ovarian = system: OVCAR-3 ovarian
U251 CNS = system: U251 CNS
UACC-257 melanoma = system: UACC-257 melanoma
KM20L2 colon = system: KM20L2 colon
HCC-2998 colon = system: HCC-2998 colon
OVCAR-4 ovarian = system: OVCAR-4 ovarian
OVCAR-5 ovarian = system: OVCAR-5 ovarian
SK-OV-3 ovarian = system: SK-OV-3 ovarian
BT-549 breast = system: BT-549 breast
SF-539 CNS = system: SF-539 CNS
LOX IMVI melanoma = system: LOX IMVI melanoma
PC-3 prostate = system: PC-3 prostate
NCI-H522 lung = system: NCI-H522 lung
SR leukemia = system: SR leukemia
MALME-3M melanoma = system: MALME-3M melanoma
ACHN renal = system: ACHN renal
K-562 leukemia = system: K-562 leukemia
NCI-H23 lung = system: NCI-H23 lung
HOP-92 NSCLC = system: HOP-92 NSCLC
NCI-H226 lung = system: NCI-H226 lung
TK-10 renal = system: TK-10 renal
UACC-62 melanoma = system: UACC-62 melanoma
SN12C renal = system: SN12C renal
HT29 colon = system: HT29 colon
786-0 renal = system: 786-0 renal
MOLT-4 leukemia = system: MOLT-4 leukemia
MCF7 breast = system: MCF7 breast
DU-145 prostate = system: DU-145 prostate
NCI/ADR-RES ovarian = system: NCI/ADR-RES ovarian
M19-MEL melanoma = system: M19-MEL melanoma
SNB-75 CNS = system: SNB-75 CNS
KM12 colon = system: KM12 colon
HOP-18 NSCLC = system: HOP-18 NSCLC

COC(=O)[C@H](C)N(C)C(=O)C(CC(N)=O)N(C)C(=O)[C@H](Cc1ccccc1)N(C)C(=O)[C@@H]1CCCN1C(=O)[C@H](C(C)C)N(C)C(=O)C(C(C)C)N(C)C(=O)[C@@H](NC(=O)OC(C)(C)C)C(C)C (some centres not stated) (Boc-V[ξNMeV][NMeV]P[NMeF][ξNMeN][NMeA]-OMe)
34 µM: TGI (KM12 colon)
> 75 µM: TGI (A549 NSCLC) | TGI (XF 498 CNS) | TGI (SK-MEL-28 melanoma) | TGI (SF-295 CNS) | TGI (DLD-1 colon) | TGI (SW-620 colon) | TGI (OVCAR-8 ovarian) | TGI (COLO 205 colon) | TGI (SNB-78 CNS) | TGI (SK-MEL-5 melanoma) | TGI (HCT-15 colon) | TGI (IGROV1 ovarian) | TGI (M14 melanoma) | TGI (CAKI-1 renal) | TGI (DMS 273 small cell lung) | TGI (LXFL 529 NSCLC) | TGI (SNB-19 CNS) | TGI (HOP-62 NSCLC) | TGI (HCT-116 colon) | TGI (SF-268 CNS) | TGI (EKVX NSCLC) | TGI (UO-31 renal) | TGI (NCI-H460 lung) | TGI (A498 renal) | TGI (OVCAR-3 ovarian) | TGI (U251 CNS) | TGI (UACC-257 melanoma) | TGI (KM20L2 colon) | TGI (HCC-2998 colon) | TGI (OVCAR-4 ovarian) | TGI (OVCAR-5 ovarian) | TGI (SK-OV-3 ovarian) | TGI (SF-539 CNS) | TGI (LOX IMVI melanoma) | TGI (NCI-H522 lung) | TGI (MALME-3M melanoma) | TGI (ACHN renal) | TGI (K-562 leukemia) | TGI (NCI-H23 lung) | TGI (NCI-H226 lung) | TGI (TK-10 renal) | TGI (UACC-62 melanoma) | TGI (SN12C renal) | TGI (HT29 colon) | TGI (786-0 renal) | TGI (SNB-75 CNS)
55.6 µM: TGI (DMS 114 small cell lung)
50 µM and 57.4 µM: TGI (HOP-92 NSCLC)
> 50 µM: TGI (MDA-N) | TGI (MDA-MB-231 breast) | TGI (T-47D breast) | TGI (MDA-MB-435) | TGI (BT-549 breast) | TGI (PC-3 prostate) | TGI (MCF7 breast) | TGI (DU-145 prostate) | TGI (NCI/ADR-RES ovarian)
39.3 µM and > 75 µM: TGI (CCRF-CEM leukemia)
inactive: GI50 (A549 NSCLC) > 75 µM | GI50 (SK-MEL-28 melanoma) 31.4 µM | GI50 (SF-295 CNS) > 75 µM | GI50 (SW-620 colon) 34.7 µM | GI50 (CCRF-CEM leukemia) 21.8 µM | GI50 (COLO 205 colon) > 75 µM | GI50 (SK-MEL-5 melanoma) 35.2 µM | GI50 (SK-MEL-2 melanoma) 18 µM | GI50 (IGROV1 ovarian) 36.7 µM | GI50 (M14 melanoma) 31.6 µM | GI50 (HL-60(TB) leukemia) 16.8 µM | GI50 (CAKI-1 renal) > 75 µM | GI50 (SNB-19 CNS) > 75 µM | GI50 (HOP-62 NSCLC) > 75 µM | GI50 (HCT-116 colon) 28 µM | GI50 (EKVX NSCLC) > 75 µM | GI50 (UO-31 renal) 40.6 µM | GI50 (NCI-H460 lung) 25.4 µM | GI50 (A498 renal) 60.1 µM | GI50 (U251 CNS) 67.1 µM | GI50 (HCC-2998 colon) 38.5 µM | GI50 (OVCAR-5 ovarian) > 75 µM | GI50 (SK-OV-3 ovarian) > 75 µM | GI50 (SF-539 CNS) > 75 µM | GI50 (LOX IMVI melanoma) 26.7 µM | GI50 (NCI-H522 lung) 34.8 µM | GI50 (ACHN renal) > 75 µM | GI50 (K-562 leukemia) 33.1 µM | GI50 (NCI-H23 lung) 35.6 µM | GI50 (HOP-92 NSCLC) 17.2 µM | GI50 (TK-10 renal) 59.2 µM | GI50 (UACC-62 melanoma) 25.8 µM | GI50 (HT29 colon) 27.2 µM | GI50 (786-0 renal) > 75 µM | GI50 (MOLT-4 leukemia) 17.1 µM
50.9 µM: TGI (M19-MEL melanoma)
50 µM: TGI (RXF 393 renal)
> 5 µM: TGI (RPMI-8226 leukemia)
62.4 µM: TGI (SR leukemia)
50 µM and 51.1 µM: TGI (MOLT-4 leukemia)
> 50 µM and 48.8 µM: TGI (SK-MEL-2 melanoma)
35.9 µM and 36.3 µM: TGI (HL-60(TB) leukemia)

COc1cc(C2Oc3cc(-c4oc5cc(O)cc(O)c5c(=O)c4O)ccc3OC2CO)ccc1O (configuration not stated)
> 64.5 µM: TGI (HL-60(TB) leukemia)
> 80.4 µM: TGI (HOP-62 NSCLC)
> 37.1 µM: TGI (HCT-116 colon)
6.02 µM: TGI (RXF 393 renal)
34.3 µM: TGI (SF-539 CNS)
6.81 µM: TGI (UO-31 renal)
> 60.7 µM: TGI (SNB-75 CNS)
58.3 µM: TGI (TK-10 renal)
29.1 µM: TGI (ACHN renal)
82.1 µM: TGI (NCI-H226 lung)
12.7 µM: TGI (NCI-H460 lung)
> 76.7 µM: TGI (OVCAR-4 ovarian)
> 62.4 µM: TGI (XF 498 CNS)
> 78.9 µM: TGI (HCC-2998 colon)
> 57.2 µM: TGI (SF-268 CNS)
64.8 µM: TGI (SF-295 CNS)
81.7 µM: TGI (SNB-19 CNS)
> 73.2 µM: TGI (CAKI-1 renal)
32.6 µM: TGI (SK-MEL-2 melanoma)
54.8 µM: TGI (OVCAR-3 ovarian)
> 95.5 µM: TGI (SK-OV-3 ovarian)
> 100 µM: TGI (A549 NSCLC) | TGI (DLD-1 colon) | TGI (DMS 114 small cell lung) | TGI (SW-620 colon) | TGI (OVCAR-8 ovarian) | TGI (CCRF-CEM leukemia) | TGI (SNB-78 CNS) | TGI (HCT-15 colon) | TGI (IGROV1 ovarian) | TGI (LXFL 529 NSCLC) | TGI (U251 CNS) | TGI (UACC-257 melanoma) | TGI (K-562 leukemia) | TGI (UACC-62 melanoma) | TGI (M19-MEL melanoma) | TGI (KM12 colon)
> 95.2 µM: TGI (SN12C renal)
> 56.4 µM: TGI (RPMI-8226 leukemia)
> 70.5 µM: TGI (M14 melanoma)
75.3 µM: TGI (COLO 205 colon)
> 30 µM: TGI (NCI-H522 lung)
96.5 µM: TGI (SK-MEL-5 melanoma)
67 µM: TGI (MALME-3M melanoma)
> 54.1 µM: TGI (SR leukemia)
62.3 µM: TGI (SK-MEL-28 melanoma)
69.7 µM: TGI (HT29 colon)
52 µM: TGI (HOP-92 NSCLC)
34.9 µM: TGI (NCI-H23 lung)
31.2 µM: TGI (DMS 273 small cell lung)
> 38.9 µM: TGI (MOLT-4 leukemia)
72.8 µM: TGI (786-0 renal)
> 49.3 µM: TGI (A498 renal)

COC1O[C@@H]2COC(C)(C)O[C@@H]2C(=O)N1Nc1ccc([N+](=O)[O-])cc1 (some centres not stated)
95.5 µM: TGI (LOX IMVI melanoma)
45.4 µM: TGI (RPMI-8226 leukemia)
> 100 µM: TGI (A549 NSCLC) | TGI (XF 498 CNS) | TGI (SK-MEL-28 melanoma) | TGI (SF-295 CNS) | TGI (DLD-1 colon) | TGI (RXF 393 renal) | TGI (OVCAR-8 ovarian) | TGI (COLO 205 colon) | TGI (SK-MEL-5 melanoma) | TGI (HCT-15 colon) | TGI (SK-MEL-2 melanoma) | TGI (IGROV1 ovarian) | TGI (M14 melanoma) | TGI (HL-60(TB) leukemia) | TGI (CAKI-1 renal) | TGI (DMS 273 small cell lung) | TGI (LXFL 529 NSCLC) | TGI (SNB-19 CNS) | TGI (HOP-62 NSCLC) | TGI (HCT-116 colon) | TGI (SF-268 CNS) | TGI (HOP-18 NSCLC) | TGI (EKVX NSCLC) | TGI (UO-31 renal) | TGI (NCI-H460 lung) | TGI (A498 renal) | TGI (OVCAR-3 ovarian) | TGI (U251 CNS) | TGI (UACC-257 melanoma) | TGI (KM20L2 colon) | TGI (HCC-2998 colon) | TGI (OVCAR-4 ovarian) | TGI (OVCAR-5 ovarian) | TGI (SK-OV-3 ovarian) | TGI (SF-539 CNS) | TGI (MALME-3M melanoma) | TGI (ACHN renal) | TGI (K-562 leukemia) | TGI (NCI-H23 lung) | TGI (HOP-92 NSCLC) | TGI (NCI-H226 lung) | TGI (TK-10 renal) | TGI (UACC-62 melanoma) | TGI (SN12C renal) | TGI (HT29 colon) | TGI (786-0 renal) | TGI (MOLT-4 leukemia) | TGI (M19-MEL melanoma) | TGI (SNB-75 CNS) | TGI (KM12 colon)
72.9 µM: TGI (SW-620 colon)
